This note sets out measurements from patent publication US20240116988A1, “ANTI-ROR1 MACROCYCLIC PEPTIDES AND COMPOSITIONS” (BRISTOL-MYERS SQUIBB COMPANY, priority 2022, published 2024).

The assay has as its target T1, human ROR1 (Homo sapiens, UniProt Q01973).
T1 construct: host or cells: HEK 293T cells, Tet-on system induced with doxycycline
The assay is described as follows: ROR1 high content cell-based binding assay. The settings on record: read-out: ROR1 Binding 293T Human HC Cell Based Assay IC50. As for the experimental part:
ROR1 high content cell-based binding assay: Human embryonic kidney 293T cells (293T) expressing human ROR1 with Tet-on system by doxycycline were used (Arctic-488134) for the assessment of inhibition of the binding of fluorescently-labeled competing peptide (“Probe”) that specifically binds to human ROR1. […] Cryopreserved vials were thawed in a 37° C. water bath. Cells were washed in assay culture media [DMEM (Life Technologies Inc. Cat. […] Cat. No. 15140-122) and […] dox] and diluted 1.0×10^5 cells/mL. Cells were seeded into PDL-coated 384 well plates (BD Falcon Cat. No. 356663) at 2,000 cells/20 μL. Plates were allowed to incubate for 10 minutes at room temperature and then transferred to a 37° C./5% CO2 incubator for overnight incubation. The next day, 125 nL of the test compound was added using an ECHO followed by the addition of 5 μL/well of 5-FAM-labeled probe to cells at a final concentration of 30 nM. Sample were incubated for 1 hour at 37° C. for 1 hour, followed by 3 washes in […] of dPBS. Cells were fixed by adding 8% (w/v) formaldehyde (Sigma Cat. No. 252549), 20 μg/mL Hoechst (Thermo Scientific Cat. No. 62249) in PBS for 20 minutes at room temperature. The plates were washed 3 more times in dPBS and 15 μl of PBS was left in the wells following the last wash. The plates were sealed, and data was using obtained using a CellInsight NXT High Content Screening Platform IC903000 (Thermo Scientific).

Starred links: 1 amine or outer side, 2 acyl side, 3 side chain; linkers in the order of their positions; H or OH if unused. Positions of bridges follow the written chain, without caps; N, C: chain ends. Non-standard residues stand in square brackets, D forms with d. Residues, ends and D or L forms follow the SMILES beside them. ξ: configuration not given here. X1 = CC(C)[C@H](CC(=O)[C@@H](N[*:1])C(C)C)C(=O)[*:2]; NMeF = CN[C@@H](Cc1ccccc1)C(=O)O; NMeNle = CCCC[C@H](NC)C(=O)O; NMeA = CN[C@@H](C)C(=O)O; ξD = NC(CC(=O)O)C(=O)O

T1 sequence (Q01973 30-937): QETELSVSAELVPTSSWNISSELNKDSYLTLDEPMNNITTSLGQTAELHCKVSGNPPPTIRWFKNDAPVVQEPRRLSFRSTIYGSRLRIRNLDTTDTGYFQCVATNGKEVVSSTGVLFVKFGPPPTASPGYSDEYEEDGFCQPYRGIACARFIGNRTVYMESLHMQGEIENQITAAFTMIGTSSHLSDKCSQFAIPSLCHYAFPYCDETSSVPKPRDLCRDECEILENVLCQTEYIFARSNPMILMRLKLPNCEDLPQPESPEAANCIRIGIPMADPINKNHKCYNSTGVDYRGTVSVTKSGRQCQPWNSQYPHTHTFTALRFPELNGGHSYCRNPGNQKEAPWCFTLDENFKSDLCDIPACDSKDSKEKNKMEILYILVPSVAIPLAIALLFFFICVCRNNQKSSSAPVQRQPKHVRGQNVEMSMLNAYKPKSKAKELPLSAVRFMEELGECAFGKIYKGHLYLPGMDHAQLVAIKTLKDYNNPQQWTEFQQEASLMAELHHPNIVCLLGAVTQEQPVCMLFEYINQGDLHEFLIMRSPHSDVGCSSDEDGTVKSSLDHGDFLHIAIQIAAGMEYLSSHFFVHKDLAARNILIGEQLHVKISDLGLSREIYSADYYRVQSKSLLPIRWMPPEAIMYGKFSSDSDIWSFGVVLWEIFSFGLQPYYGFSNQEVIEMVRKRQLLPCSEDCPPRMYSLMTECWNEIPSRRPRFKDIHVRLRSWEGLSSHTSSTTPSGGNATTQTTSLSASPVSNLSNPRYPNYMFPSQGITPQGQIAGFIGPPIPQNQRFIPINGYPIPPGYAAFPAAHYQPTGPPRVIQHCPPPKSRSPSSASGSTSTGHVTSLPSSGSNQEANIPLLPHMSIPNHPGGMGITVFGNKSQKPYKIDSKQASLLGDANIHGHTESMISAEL

As for `CC(C)C[C@@H]1NC(=O)[C@H](Cc2c[nH]c3ccccc23)NC(=O)[C@H](C(C)C)NC(=O)CNC(=O)[C@H](CO)NC(=O)[C@H](Cc2ccccc2)N(C)C(=O)[C@H](Cc2ccc(O)cc2)NC(=O)[C@H](Cc2ccc(O)cc2)NC(=O)[C@@H](Cc2ccccc2)NC(=O)CSC[C@@H](C(=O)NCC(N)=O)NC(=O)[C@H](C(C)C)NC(=O)[C@H](Cc2ccc(O)cc2)NC1=O` [Example 1000] ({CH2CO}-[dF]YY[NMeF]SGVWLYVCG-NH2; thioether N-12), the IC50 came to 11 nM. For `CC(C)C[C@@H]1NC(=O)[C@H](Cc2c[nH]c3ccccc23)NC(=O)[C@H](Cc2ccc(O)cc2)NC(=O)[C@H](Cc2c[nH]c3ccccc23)NC(=O)CNC(=O)[C@H](CO)NC(=O)[C@H](Cc2ccc(O)cc2)NC(=O)[C@H](C(C)C)NC(=O)[C@@H]2CCCN2C(=O)[C@H](Cc2ccc(O)cc2)NC(=O)[C@H](Cc2ccccc2)NC(=O)CSC[C@@H](C(=O)NCC(N)=O)NC1=O` [Example 1001] ({CH2CO}-FYPVYSGWYWLCG-NH2; thioether N-12), the half-maximal inhibitory concentration (IC50) came to 49 nM. Take `CCCC[C@H]1C(=O)N[C@H](C(=O)NCC(N)=O)CSCC(=O)N[C@@H](Cc2ccccc2)C(=O)N[C@@H](Cc2ccc(O)cc2)C(=O)N[C@@H](Cc2c[nH]c3ccccc23)C(=O)N[C@@H](CO)C(=O)N[C@@H](CO)C(=O)N[C@@H](CCCNC(=N)N)C(=O)N(C)[C@@H](C)C(=O)N[C@@H](Cc2c[nH]c3ccccc23)C(=O)N[C@@H](Cc2ccc(O)cc2)C(=O)N[C@@H](CC(C)C)C(=O)N1C` [Example 1003] ({CH2CO}-FYWSSR[NMeA]WYL[NMeNle]CG-NH2; thioether N-12): the half-maximal inhibitory concentration (IC50) amounted to 8 nM. Take `CC(C)C[C@@H]1NC(=O)[C@H](Cc2ccccc2)NC(=O)CSC[C@@H](C(=O)NCC(N)=O)NC(=O)[C@H](C)NC(=O)[C@H](Cc2c[nH]c3ccccc23)NC(=O)[C@H](Cc2ccccc2)NC(=O)[C@H](Cc2c[nH]c3ccccc23)NC(=O)CNC(=O)[C@H](Cc2ccc(O)cc2)NC(=O)[C@H](CCCNC(=N)N)NC(=O)[C@H](C(C)C)NC(=O)[C@H](Cc2c[nH]c3ccccc23)NC1=O` [Example 1004] ({CH2CO}-FLWVRYGWFWACG-NH2; thioether N-12): the IC50 was 99 nM. Regarding `CC(C)C[C@@H]1NC(=O)[C@H](Cc2ccccc2)NC(=O)CSC[C@@H](C(=O)NCC(N)=O)NC(=O)[C@H](C)NC(=O)[C@H](Cc2ccc(O)cc2)NC(=O)[C@H](Cc2ccc(O)cc2)NC(=O)[C@H](Cc2c[nH]c3ccccc23)NC(=O)CNC(=O)[C@H](Cc2ccc(O)cc2)NC(=O)[C@H](CCCNC(=N)N)NC(=O)[C@H](C(C)C)NC(=O)[C@H](Cc2c[nH]c3ccccc23)NC1=O` [Example 1005] ({CH2CO}-FLWVRYGWYYACG-NH2; thioether N-12), the concentration for half-maximal inhibition (IC50) was determined as 30 nM. With `CC(C)C[C@@H]1NC(=O)[C@H](Cc2c[nH]c3ccccc23)NC(=O)[C@H](Cc2ccccc2)NC(=O)[C@H](Cc2c[nH]c3ccccc23)NC(=O)CNC(=O)[C@H](CO)NC(=O)[C@H](Cc2ccc(O)cc2)NC(=O)[C@H](C(C)C)NC(=O)[C@H](CCCNC(=N)N)NC(=O)[C@H](Cc2ccccc2)NC(=O)[C@H](Cc2ccccc2)NC(=O)CSC[C@@H](C(=O)NCC(N)=O)NC1=O` [Example 1006] ({CH2CO}-FFRVYSGWFWLCG-NH2; thioether N-12) the figure was 147 nM; with `CC[C@H](C)[C@@H]1NC(=O)[C@H](Cc2ccccc2)NC(=O)CSC[C@@H](C(=O)NCC(N)=O)NC(=O)[C@H](C)NC(=O)[C@H](Cc2ccccc2)NC(=O)[C@H](Cc2ccc(O)cc2)NC(=O)[C@H](Cc2c[nH]c3ccccc23)NC(=O)CNC(=O)[C@H](CCC(=O)O)NC(=O)[C@H](Cc2ccc(O)cc2)NC(=O)[C@H](C(C)C)NC(=O)[C@H](Cc2c[nH]c3ccccc23)NC1=O` [Example 1008] ({CH2CO}-FIWVYEGWYFACG-NH2; thioether N-12), 36 nM; with `CC(C)C[C@@H]1NC(=O)[C@H](Cc2c[nH]c3ccccc23)NC(=O)[C@H](Cc2ccc(O)cc2)NC(=O)[C@H](Cc2c[nH]c3ccccc23)NC(=O)CNC(=O)C(CC(=O)O)NC(=O)[C@H](Cc2ccc(O)cc2)NC(=O)[C@H](C(C)C)NC(=O)[C@@H]2CCCN2C(=O)[C@H](Cc2ccc(O)cc2)NC(=O)[C@H](Cc2ccccc2)NC(=O)CSC[C@@H](C(=O)NCC(N)=O)NC1=O` (some centres unmarked) [Example 1009] ({CH2CO}-FYPVY[ξD]GWYWLCG-NH2; thioether N-12), 54 nM. Take `CC(C)C[C@@H]1NC(=O)[C@H](Cc2c[nH]c3ccccc23)NC(=O)[C@H](Cc2ccccc2)NC(=O)[C@H](Cc2c[nH]c3ccccc23)NC(=O)CNC(=O)CNC(=O)[C@H](CC(C)C)NC(=O)[C@H](C(C)C)NC(=O)[C@H](CC(C)C)NC(=O)[C@H](Cc2ccc(O)cc2)NC(=O)[C@H](Cc2ccccc2)NC(=O)CSC[C@@H](C(=O)NCC(N)=O)NC1=O` [Example 1010] ({CH2CO}-FYLVLGGWFWLCG-NH2; thioether N-12): the IC50 amounted to 821 nM.

As for `CC(C)C[C@@H]1NC(=O)[C@H](Cc2c[nH]c3ccccc23)NC(=O)[C@H](Cc2ccccc2)NC(=O)[C@H](Cc2c[nH]c3ccccc23)NC(=O)CNC(=O)[C@H](CC(=O)O)NC(=O)[C@H](CCCNC(=N)N)NC(=O)[C@H](C(C)C)CC(=O)[C@H](C(C)C)NC(=O)[C@H](Cc2ccc(O)cc2)NC(=O)[C@H](Cc2ccccc2)NC(=O)CSC[C@@H](C(=O)NCC(N)=O)NC1=O` [Example 1011] ({CH2CO}-FY[X1]RDGWFWLCG-NH2; thioether N-11), the IC50 amounted to 168 nM. Take `CC(C)C[C@@H]1NC(=O)[C@H](Cc2c[nH]c3ccccc23)NC(=O)[C@H](Cc2ccccc2)NC(=O)[C@H](Cc2c[nH]c3ccccc23)NC(=O)CNC(=O)[C@H](CO)NC(=O)[C@H](Cc2ccc(O)cc2)NC(=O)[C@H](C(C)C)NC(=O)[C@@H]2CCCN2C(=O)[C@H](Cc2ccc(O)cc2)NC(=O)[C@H](Cc2ccccc2)NC(=O)CSC[C@@H](C(=O)NCC(N)=O)NC1=O` [Example 1012] ({CH2CO}-FYPVYSGWFWLCG-NH2; thioether N-12): the IC50 amounted to 36 nM. Under `CC(C)C[C@@H]1NC(=O)[C@H](Cc2ccccc2)NC(=O)CSC[C@@H](C(=O)NCC(N)=O)NC(=O)[C@H](C)NC(=O)[C@H](Cc2c[nH]c3ccccc23)NC(=O)[C@H](Cc2ccc(O)cc2)NC(=O)[C@H](Cc2c[nH]c3ccccc23)NC(=O)[C@H](Cc2c[nH]c3ccccc23)NC(=O)[C@H](CCC(=O)O)NC(=O)[C@H](Cc2ccc(O)cc2)NC(=O)[C@H](C(C)C)NC(=O)[C@H](Cc2c[nH]c3ccccc23)NC1=O` [Example 1013] ({CH2CO}-FLWVYEWWYWACG-NH2; thioether N-12) stands 637 nM; under `CC(C)C[C@@H]1NC(=O)[C@H](Cc2c[nH]c3ccccc23)NC(=O)[C@H](Cc2ccccc2)NC(=O)[C@H](Cc2c[nH]c3ccccc23)NC(=O)CNC(=O)[C@H](CO)NC(=O)[C@H](Cc2ccc(O)cc2)NC(=O)[C@H](C(C)C)NC(=O)[C@H](CCCNC(=N)N)NC(=O)[C@H](Cc2ccccc2)NC(=O)[C@H](Cc2ccccc2)NC(=O)CSC[C@@H](C(N)=O)NC1=O` [Example 1014] ({CH2CO}-FFRVYSGWFWLC-NH2; thioether N-12), 707 nM.

For `CC(C)C[C@@H]1NC(=O)[C@H](Cc2ccc(O)cc2)NC(=O)[C@H](Cc2ccccc2)NC(=O)CSC[C@@H](C(=O)NCC(N)=O)NC(=O)[C@H](CC(C)C)NC(=O)[C@H](Cc2ccccc2)N(C)C(=O)[C@H](Cc2ccc(O)cc2)NC(=O)[C@H](Cc2c[nH]c3ccccc23)NC(=O)CNC(=O)[C@H](Cc2cnc[nH]2)NC(=O)[C@H](Cc2ccc(O)cc2)NC(=O)[C@H](C(C)C)NC1=O` [Example 1015] ({CH2CO}-FYLVYHGWY[NMeF]LCG-NH2; thioether N-12), the IC50 was 17 nM.

Usually IC50 stands for the concentration that inhibits the measured activity by half.
